{
  "source": "patent US4819645A",
  "about": "“Dermal substance collection method” (priority 1987, dated 1989)",
  "key": {"[1]": {"assay_type": "in vivo, Rhesus monkey", "conditions": "14C-parathion intravenously; activated charcoal gel DSCD, skin pre-treated with Azone", "text": "Extensive In vivo testing of the dermal substance collection device (DSCD) has been undertaken in rabbits (R, Rhesus monkeys (M) and humans (H). […]. Experimental conditions were varied in order to evaluate various binding reservoirs including activated charcoal dispersed in a saline/gel matrix, various DSCD embodiments which provide a liquid bridge including saline, immobilized by various gels such as agarose or polyvinyl alcohol as the gelling agent, various DSCD embodiments which provide persistent occlusive contact of the liquid bridge with the skin (single layer adhesive tape overlying the DSCD liquid bridge/binding reservoir complex vs multiple tape/foil layers enveloping a liquid bridge/binding reservoir complex vs multiple tape/foil layers enveloping a liquid bridge/binding reservoir complex which protrudes into the skin effecting positive pressure during emplacement), various preparatory procedures (shaving, clipping of hair, use of a chemical depilitant, cleansing of the skin with soap and isopropyl alcohol), and various skin penetration enhancing agents (Azone, DET, DMSO).\nIn a typical animal experiment, a Rhesus monkey is anesthetized with ketamine 10 mg/kg and the hair on the chest and abdomen is clipped prior to washing the underlying skin (with a mild soap or isopropyl alcohol). […]"}, "[2]": {"test": "Collection of cimetidine by DSCDs in a healthy volunteer", "conditions": "5 mg/kg orally or intravenously, 24 hours, 25 mm liquid bridge, agarose gel with activated charcoal"}, "[3]": {"conditions": "Rhesus monkeys, maximum percentage of administered dose collected, liquid bridge diameter 9 mm"}, "[4]": {"test": "Collection of THC by DSCDs after oral THC, RIA after toluene/ethanol extraction", "conditions": "cancer patient, oral 10 mg THC, up to 48 hours, lower legs, 1 cm gel"}, "[5]": {"conditions": "parent compound and metabolites"}},
  "note": "Like-named read-outs stand apart in the source and are kept apart here.",
  "data": [
    {"compound": "CCOP(=S)(OCC)Oc1ccc([N+](=O)[O-])cc1", "note": "[14C-parathion]", "values": [
      {"measurement": "transdermal collection (in words)", "setting": "[1]", "value": "particularly satisfactory transdermal collection"}
    ]},
    {"compound": "CN/C(=N/CCSCc1nc[nH]c1C)NC#N", "note": "[CIMETIDINE, cimetidine]", "values": [
      {"measurement": "amount of cimetidine collected from DSCDs", "setting": "[2]", "value": "62 to 461", "unit": "ng"},
      {"measurement": "EXTENT OF TRANSDERMAL MIGRATION", "setting": "[3]; parent compound only", "value": 8.3, "unit": "% Dose × 10^4"}
    ]},
    {"compound": "CN1CCCC1c1cccnc1", "note": "(stereo not shown) [NICOTINE, nicotine]", "values": [
      {"measurement": "EXTENT OF TRANSDERMAL MIGRATION", "setting": "[3]; [5]", "value": 2.5, "unit": "% Dose × 10^4"}
    ]},
    {"compound": "CCOP(=S)(OCC)Oc1ccc([N+](=O)[O-])cc1", "note": "[PARATHION, parathion]", "values": [
      {"measurement": "EXTENT OF TRANSDERMAL MIGRATION", "setting": "[3]; [5]", "value": 0.7, "unit": "% Dose × 10^4"}
    ]},
    {"compound": "CCCCCc1cc(O)c2c(c1)OC(C)(C)[C@@H]1CCC(C)=C[C@@H]21", "note": "[TETRAHYDROCANNABINOL]", "values": [
      {"measurement": "amount of THC collected from DSCDs", "setting": "[4]; agarose gel without activated charcoal", "value": "224 ± 22", "unit": "pg"},
      {"measurement": "amount of THC collected from DSCDs", "setting": "[4]; gel with activated charcoal", "value": "601 ± 302", "unit": "pg"},
      {"measurement": "EXTENT OF TRANSDERMAL MIGRATION", "setting": "[3]; parent compound only", "value": 0.1, "unit": "% Dose × 10^4"}
    ]},
    {"compound": "Cn1c(=O)c2[nH]cnc2n(C)c1=O", "note": "[THEOPHYLLINE, theophylline]", "values": [
      {"measurement": "EXTENT OF TRANSDERMAL MIGRATION", "setting": "[3]; [5]", "value": 25, "unit": "% Dose × 10^4"}
    ]},
    {"compound": "inulin", "values": [
      {"measurement": "EXTENT OF TRANSDERMAL MIGRATION", "setting": "[3]; [5]", "value": 0.5, "unit": "% Dose × 10^4"}
    ]}
  ]
}
